# Results published in the supplement of paper PMC10307832.
# Experiments:
# Test in all cases: relative viability (nuclei count vs DMSO), 5 days (fraction); higher = more cells survive
# EMC-BAC-2 = tested on: EMC-BAC-2
# In short: (§1)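 Lung cancer cell lines, seeded in 1536-well plates, were treated the following day by pin tool with a single drug or with five library-drug doses (not always all listed) in √10 steps on top of a fixed anchor-drug dose. Cells were fixed and nuclei stained in one step after 5 days, and nuclei were counted. Relative viability is the nuclei count for treated wells divided by that for vehicle wells, reported as medians of duplicate plates.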
# NCI-H358 = tested on: NCI-H358
# In short: as §1
# CAL-12T = tested on: CAL-12T
# In short: as §1
# NCI-H1975 = tested on: NCI-H1975
# In short: as §1
# NCI-H3122 = tested on: NCI-H3122
# In short: as §1
# NCI-H1993 = tested on: NCI-H1993
# In short: as §1
# HOP-62 = tested on: HOP-62
# In short: as §1
# NCI-H1666 = tested on: NCI-H1666
# In short: as §1
# HCC-78 = tested on: HCC-78
# In short: as §1
# NCI-H322M = tested on: NCI-H322M
# In short: as §1
# UMC-11 = tested on: UMC-11
# In short: as §1
# LXF-289 = tested on: LXF-289
# In short: as §1
# EPLC-272H = tested on: EPLC-272H
# In short: as §1
# NCI-H2126 = tested on: NCI-H2126
# In short: as §1
# NCI-H2085 = tested on: NCI-H2085
# In short: as §1
# COR-L 105 = tested on: COR-L 105
# In short: as §1
# NCI-H1755 = tested on: NCI-H1755
# In short: as §1
# ChaGo-K-1 = tested on: ChaGo-K-1
# In short: as §1
# ABC-1 = tested on: ABC-1
# In short: as §1
# NCI-H2023 = tested on: NCI-H2023
# In short: as §1
# NCI-H441 = tested on: NCI-H441
# In short: as §1
# NCI-H1915 = tested on: NCI-H1915
# In short: as §1
# HCC-15 = tested on: HCC-15
# In short: as §1
smiles,measurement,setting,value
CC(C)Oc1cc(Nc2nc(N[C@@H](C)c3ccc(F)cn3)ncc2Cl)n[nH]1 [AZ23] + COc1cc2c(Oc3ccc(NC(=O)C4(C(=O)Nc5ccc(F)cc5)CC4)cc3F)ccnc2cc1OCCCN1CCOCC1 [Foretinib] (partner 0.25 µM),relative viability,EMC-BAC-2; first compound 0.01 µM,1.12
same,relative viability,EMC-BAC-2; first compound 0.03162 µM,1.06
same,relative viability,EMC-BAC-2; first compound 0.3162 µM,0.989
same,relative viability,NCI-H358; first compound 0.01 µM,0.786
same,relative viability,NCI-H358; first compound 0.03162 µM,0.829
same,relative viability,NCI-H358; first compound 0.3162 µM,0.727
same,relative viability,CAL-12T; first compound 0.03162 µM,1.14
same,relative viability,CAL-12T; first compound 0.3162 µM,0.884
same,relative viability,NCI-H1975; first compound 0.01 µM,1.05
same,relative viability,NCI-H1975; first compound 0.03162 µM,1.14
same,relative viability,NCI-H1975; first compound 0.3162 µM,0.99
same,relative viability,NCI-H3122; first compound 0.01 µM,1.15
same,relative viability,NCI-H3122; first compound 0.03162 µM,0.918
same,relative viability,NCI-H3122; first compound 0.3162 µM,0.981
same,relative viability,NCI-H1993; first compound 0.01 µM,0.66
same,relative viability,NCI-H1993; first compound 0.03162 µM,0.725
same,relative viability,NCI-H1993; first compound 0.3162 µM,0.753
same,relative viability,HOP-62; first compound 0.01 µM,1.33
same,relative viability,HOP-62; first compound 0.03162 µM,1.15
same,relative viability,HOP-62; first compound 0.3162 µM,1.3
same,relative viability,NCI-H1666; first compound 0.01 µM,0.992
same,relative viability,NCI-H1666; first compound 0.03162 µM,1.05
same,relative viability,NCI-H1666; first compound 0.3162 µM,0.918
same,relative viability,HCC-78; first compound 0.01 µM,0.588
same,relative viability,HCC-78; first compound 0.03162 µM,0.52
same,relative viability,HCC-78; first compound 0.3162 µM,0.547
same,relative viability,NCI-H322M; first compound 0.03162 µM,0.96
same,relative viability,NCI-H322M; first compound 0.3162 µM,1.04
same,relative viability,UMC-11; first compound 0.01 µM,1.08
same,relative viability,UMC-11; first compound 0.03162 µM,1.15
same,relative viability,UMC-11; first compound 0.3162 µM,0.951
same,relative viability,LXF-289; first compound 0.01 µM,1.14
same,relative viability,LXF-289; first compound 0.03162 µM,0.977
same,relative viability,LXF-289; first compound 0.3162 µM,0.949
same,relative viability,EPLC-272H; first compound 0.01 µM,0.77
same,relative viability,EPLC-272H; first compound 0.03162 µM,0.74
same,relative viability,EPLC-272H; first compound 0.3162 µM,0.676
same,relative viability,NCI-H2126; first compound 0.01 µM,1.05
same,relative viability,NCI-H2126; first compound 0.03162 µM,1.21
same,relative viability,NCI-H2126; first compound 0.3162 µM,1.19
same,relative viability,NCI-H2085; first compound 0.01 µM,0.848
same,relative viability,NCI-H2085; first compound 0.03162 µM,1.22
same,relative viability,NCI-H2085; first compound 0.3162 µM,1.08
same,relative viability,COR-L 105; first compound 0.01 µM,1.07
same,relative viability,COR-L 105; first compound 0.03162 µM,1.26
same,relative viability,COR-L 105; first compound 0.3162 µM,0.842
same,relative viability,NCI-H1755; first compound 0.01 µM,0.949
same,relative viability,NCI-H1755; first compound 0.03162 µM,0.94
same,relative viability,NCI-H1755; first compound 0.3162 µM,0.958
same,relative viability,ChaGo-K-1; first compound 0.01 µM,1.17
same,relative viability,ChaGo-K-1; first compound 0.03162 µM,0.906
same,relative viability,ChaGo-K-1; first compound 0.3162 µM,0.95
same,relative viability,ABC-1; first compound 0.01 µM,1.03
same,relative viability,ABC-1; first compound 0.03162 µM,1.04
same,relative viability,ABC-1; first compound 0.3162 µM,1.02
same,relative viability,NCI-H2023; first compound 0.03162 µM,0.88
same,relative viability,NCI-H2023; first compound 0.3162 µM,0.924
same,relative viability,NCI-H441; first compound 0.01 µM,1.52
same,relative viability,NCI-H441; first compound 0.03162 µM,0.854
same,relative viability,NCI-H441; first compound 0.3162 µM,0.967
same,relative viability,NCI-H1915; first compound 0.01 µM,1.22
same,relative viability,NCI-H1915; first compound 0.03162 µM,1.14
same,relative viability,NCI-H1915; first compound 0.3162 µM,1.08
same,relative viability,HCC-15; first compound 0.01 µM,1.16
same,relative viability,HCC-15; first compound 0.03162 µM,1.09
same,relative viability,HCC-15; first compound 0.3162 µM,1.05
